We go through 33 compounds from ChEMBL document CHEMBL3044894, “QSAR studies on a number of pyrrolidin-2-one antiarrhythmic arylpiperazinyls” (2012).

The test system of this test is Rattus norvegicus. Kind of test: Antiarrhythmic activity in anaesthetized rat assessed as inhibition of adrenaline-induced arrhythmia. In kind it is functional, Heart.

Turning to `CCOc1ccccc1N1CCN(CC(O)CN2CCC(c3ccccc3)(c3ccccc3)C2=O)CC1` (stereo not drawn), the pED50 was 2.66.

Take `COc1ccccc1N1CCN(CC(O)CN2CCC(c3ccccc3)(c3ccccc3)C2=O)CC1` (stereo not drawn): the pED50 amounted to 2.37. On to `O=C1N(CC(O)CN2CCN(c3ccccc3C(F)(F)F)CC2)CCC1(c1ccccc1)c1ccccc1` (stereo not drawn), for which the pED50 is on record as 2.13. As for `Cc1ccccc1N1CCN(CC(O)CN2CCC(c3ccccc3)(c3ccccc3)C2=O)CC1` (stereo not drawn), the pED50 was 2.53.

As for `O=C1N(CC(O)CN2CCN(c3ccccc3)CC2)CCC1(c1ccccc1)c1ccccc1` (stereo not drawn), the pED50 was determined as 2.38.

As to `COc1ccc(Cl)cc1N1CCN(CC(O)CN2CCCC2=O)CC1` (stereo not drawn), the pED50 amounted to 1.48. Turning to `CCNC(=O)OC(CN1CCN(c2ccccc2OC)CC1)CN1CCCC1=O` (stereo not drawn), the pED50 was found to be 1.92. For the compound `COc1ccccc1N1CCN(CC(CN2CCCC2=O)OC(=O)NC(C)C)CC1` (stereo not drawn), the pED50 was determined as 2.19. The value for `CCCNC(=O)OC(CN1CCN(c2ccccc2OC)CC1)CN1CCCC1=O` (stereo not drawn) was 1.52.

For the compound `CCCC(=O)OC(CN1CCN(c2ccccc2OC(C)C)CC1)CN1CCCC1=O` (stereo not drawn), the pED50 came out at 1.77.

For `CC(C)NC(=O)OC(CN1CCN(c2ccccc2Cl)CC1)CN1CCCC1=O` (stereo not drawn), the pED50 was determined as 2. As to `CCNC(=O)OC(CN1CCN(c2ccccc2)CC1)CN1CCCC1=O` (stereo not drawn), the pED50 is on record as 1.66. `CC(C)C(=O)OC(CN1CCN(c2ccccc2)CC1)CN1CCCC1=O` (stereo not drawn): the pED50 was 1.88. As for `O=C(NCc1ccccc1)OC(CN1CCN(c2ccccc2)CC1)CN1CCCC1=O` (stereo not drawn), the pED50 worked out at 1.47. With `CCCNC(=O)OC(CN1CCN(c2ccccc2)CC1)CN1CCCC1=O` (stereo not drawn), the pED50 came to 1.52. Consider `O=C1CCCN1CCCN1CCN(c2ccccc2O)CC1`, for which the pED50 came out at 1.36.

As to `O=C1CCCN1CCCN1CCN(c2ccccc2)CC1`, the pED50 came out at 2.01. In the case of `COc1ccccc1N1CCN(CCCN2CCCC2=O)CC1` it was 1.79; in that of `O=C1CCCN1CCCN1CCN(c2ccccc2Cl)CC1`, 1.8. In the case of `O=C1CCCN1CCCN1CCN(c2ccccc2F)CC1` it was 1.54. Consider `CCOc1ccccc1N1CCN(CCCN2CCCC2=O)CC1`, for which the pED50 was determined as 2.52. The value for `O=C1CCCN1CCCN1CCN(c2cccc(C(F)(F)F)c2)CC1` was 1.45; that for `COc1ccccc1N1CCN(CC(O)CN2CCCC2=O)CC1` (stereo not drawn) was 1.43.

Take `O=C1CCCN1CC(O)CN1CCN(c2ccc(Cl)cc2)CC1` (stereo not drawn): the pED50 was determined as 1.4. For `O=C1CCCN1CC(O)CN1CCN(c2ccccc2F)CC1` (stereo not drawn), the pED50 stood at 1.79. In the case of `COc1cccc(N2CCN(CC(O)CN3CCCC3=O)CC2)c1` (stereo not drawn) it was 1.64; in that of `CCOc1ccccc1N1CCN(CC(O)CN2CCCC2=O)CC1` (stereo not drawn), 1.97. For `Cc1ccccc1N1CCN(CC(O)CN2CCCC2=O)CC1` (stereo not drawn), the pED50 turned out to be 1.55. Turning to `O=C1CCCN1CC(O)CN1CCN(c2ccccc2O)CC1` (stereo not drawn), the pED50 is on record as 2.23. In the case of `CC(C)Oc1ccccc1N1CCN(CC(O)CN2CCCC2=O)CC1` (stereo not drawn) it was 1.77; in that of `O=C1CCCN1CC(O)CN1CCN(c2ccccc2C(F)(F)F)CC1` (stereo not drawn), 1.31. Take `O=C1CCCN1CC(O)CN1CCN(c2ccc(F)cc2F)CC1` (stereo not drawn): the pED50 amounted to 1.54. As to `O=C1CCCN1CC(O)CN1CCN(c2ccccc2)CC1` (stereo not drawn), the pED50 stood at 1.6.
